Experimental data published in ChEMBL document CHEMBL1201862, “PubChem BioAssay data set” (2004).
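The compound was tested at five concentrations on cells cultured in 96-well plates, with a 48-hour exposure period. The concentration for 50% growth inhibition is given as GI50.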 Active and inactive are the calls of the source. Cut-off read from the data, not from the text of the source: active = GI50 up to about 1.1 µM and inactive = higher.

Legend:
Test in all cases: NCI anticancer screen, dose series, 48 h
786-0 = system: 786-0
A498 = system: A498
A549 = system: A549
ACHN = system: ACHN
BT-549 = system: BT-549
CAKI-1 = system: CAKI-1
CCRF-CEM = system: CCRF-CEM
COLO 205 = system: COLO 205
DU-145 = system: DU-145
HCC 2998 = system: HCC 2998
HCT-116 = system: HCT-116
HCT-15 = system: HCT-15
HL-60 = system: HL-60
HOP-62 = system: HOP-62
HOP-92 = system: HOP-92
HT-29 = system: HT-29
Hs-578T = system: Hs-578T
IGROV-1 = system: IGROV-1
K562 = system: K562
KM12 = system: KM12
LOX IMVI = system: LOX IMVI
M14 = system: M14
MCF7 = system: MCF7
MDA-MB-231 = system: MDA-MB-231
MDA-MB-435 = system: MDA-MB-435
MOLT-4 = system: MOLT-4
Malme-3M = system: Malme-3M
NCI-H23 = system: NCI-H23
NCI-H460 = system: NCI-H460
NCI-H522 = system: NCI-H522
NCI/ADR-RES = system: NCI/ADR-RES
OVCAR-3 = system: OVCAR-3
OVCAR-4 = system: OVCAR-4
OVCAR-5 = system: OVCAR-5
OVCAR-8 = system: OVCAR-8
PC-3 = system: PC-3
RPMI-8226 = system: RPMI-8226
SF-268 = system: SF-268
SF-295 = system: SF-295
SF-539 = system: SF-539
SK-MEL-28 = system: SK-MEL-28
SK-MEL-2 = system: SK-MEL-2
SK-MEL-5 = system: SK-MEL-5
SK-OV-3 = system: SK-OV-3
SN12C = system: SN12C
SNB-19 = system: SNB-19
SNB-75 = system: SNB-75
SR = system: SR
SW-620 = system: SW-620
T47D = system: T47D
TK-10 = system: TK-10
U-251 = system: U-251
UACC-257 = system: UACC-257
UACC-62 = system: UACC-62
UO-31 = system: UO-31
EKVX = system: EKVX
MDA-N = system: MDA-N
NCI-H226 = system: NCI-H226
RXF 393 = system: RXF 393

SMILES: CN(C)CCNC(=O)c1nc([N+](=O)[O-])cn1C
- GI50 (786-0): > 100 µM (inactive)
- GI50 (A498): > 100 µM (inactive)
- GI50 (A549): > 100 µM (inactive)
- GI50 (ACHN): > 100 µM (inactive)
- GI50 (BT-549): > 100 µM (inactive)
- GI50 (CAKI-1): > 100 µM (inactive)
- GI50 (CCRF-CEM): > 100 µM (inactive)
- GI50 (COLO 205): > 100 µM (inactive)
- GI50 (DU-145): > 100 µM (inactive)
- GI50 (HCC 2998): > 100 µM (inactive)
- GI50 (HCT-116): > 100 µM (inactive)
- GI50 (HCT-15): > 100 µM
- GI50 (HL-60): > 100 µM (inactive)
- GI50 (HOP-62): > 100 µM (inactive)
- GI50 (HOP-92): > 100 µM (inactive)
- GI50 (HT-29): > 100 µM (inactive)
- GI50 (Hs-578T): > 100 µM (inactive)
- GI50 (IGROV-1): > 100 µM (inactive)
- GI50 (K562): > 100 µM (inactive)
- GI50 (KM12): > 100 µM (inactive)
- GI50 (LOX IMVI): > 100 µM (inactive)
- GI50 (M14): > 100 µM (inactive)
- GI50 (MCF7): > 100 µM (inactive)
- GI50 (MDA-MB-231): > 100 µM (inactive)
- GI50 (MDA-MB-435): > 100 µM (inactive)
- GI50 (MOLT-4): > 100 µM (inactive)
- GI50 (Malme-3M): > 100 µM (inactive)
- GI50 (NCI-H23): > 100 µM (inactive)
- GI50 (NCI-H460): > 100 µM (inactive)
- GI50 (NCI-H522): > 100 µM (inactive)
- GI50 (NCI/ADR-RES): > 100 µM (inactive)
- GI50 (OVCAR-3): > 100 µM (inactive)
- GI50 (OVCAR-4): > 100 µM (inactive)
- GI50 (OVCAR-5): > 100 µM (inactive)
- GI50 (OVCAR-8): > 100 µM (inactive)
- GI50 (PC-3): > 100 µM (inactive)
- GI50 (RPMI-8226): > 100 µM (inactive)
- GI50 (SF-268): > 100 µM (inactive)
- GI50 (SF-295): > 100 µM (inactive)
- GI50 (SF-539): > 100 µM (inactive)
- GI50 (SK-MEL-28): > 100 µM (inactive)
- GI50 (SK-MEL-2): > 100 µM (inactive)
- GI50 (SK-MEL-5): > 100 µM (inactive)
- GI50 (SK-OV-3): > 100 µM (inactive)
- GI50 (SN12C): > 100 µM (inactive)
- GI50 (SNB-19): > 100 µM (inactive)
- GI50 (SNB-75): > 100 µM (inactive)
- GI50 (SR): > 100 µM (inactive)
- GI50 (SW-620): > 100 µM (inactive)
- GI50 (T47D): > 100 µM (inactive)
- GI50 (TK-10): > 100 µM (inactive)
- GI50 (U-251): > 100 µM (inactive)
- GI50 (UACC-257): > 100 µM (inactive)
- GI50 (UACC-62): > 100 µM (inactive)
- GI50 (UO-31): > 100 µM (inactive)

SMILES: Cc1ccc(Nc2sc(C)cc2C#N)c([N+](=O)[O-])c1
- GI50 (786-0): > 100 µM (inactive)
- GI50 (A498): > 100 µM (inactive)
- GI50 (A549): > 100 µM (inactive)
- GI50 (ACHN): > 100 µM (inactive)
- GI50 (BT-549): > 100 µM (inactive)
- GI50 (CAKI-1): > 100 µM (inactive)
- GI50 (CCRF-CEM): 99.8 µM (inactive)
- GI50 (COLO 205): > 100 µM (inactive)
- GI50 (DU-145): > 100 µM (inactive)
- GI50 (EKVX): > 100 µM (inactive)
- GI50 (HCC 2998): > 100 µM (inactive)
- GI50 (HCT-116): > 100 µM (inactive)
- GI50 (HCT-15): 67.3 µM
- GI50 (HOP-62): > 100 µM (inactive)
- GI50 (HOP-92): 88.9 µM (inactive)
- GI50 (K562): > 100 µM (inactive)
- GI50 (KM12): 93.5 µM (inactive)
- GI50 (M14): > 100 µM (inactive)
- GI50 (MCF7): > 100 µM (inactive)
- GI50 (MDA-MB-231): > 100 µM (inactive)
- GI50 (MDA-MB-435): > 100 µM (inactive)
- GI50 (MDA-N): > 100 µM (inactive)
- GI50 (MOLT-4): > 100 µM (inactive)
- GI50 (Malme-3M): > 100 µM (inactive)
- GI50 (NCI-H226): > 100 µM (inactive)
- GI50 (NCI-H23): > 100 µM (inactive)
- GI50 (NCI-H460): > 100 µM (inactive)
- GI50 (NCI-H522): > 100 µM (inactive)
- GI50 (NCI/ADR-RES): 98.9 µM (inactive)
- GI50 (OVCAR-3): > 100 µM (inactive)
- GI50 (OVCAR-4): > 100 µM (inactive)
- GI50 (OVCAR-5): > 100 µM (inactive)
- GI50 (OVCAR-8): > 100 µM (inactive)
- GI50 (PC-3): > 100 µM (inactive)
- GI50 (RPMI-8226): > 100 µM (inactive)
- GI50 (RXF 393): 53.3 µM (inactive)
- GI50 (SF-268): > 100 µM (inactive)
- GI50 (SF-295): > 100 µM (inactive)
- GI50 (SF-539): > 100 µM (inactive)
- GI50 (SK-MEL-28): > 100 µM (inactive)
- GI50 (SK-OV-3): > 100 µM (inactive)
- GI50 (SN12C): > 100 µM (inactive)
- GI50 (SNB-19): > 100 µM (inactive)
- GI50 (SNB-75): > 100 µM (inactive)
- GI50 (SR): > 100 µM (inactive)
- GI50 (SW-620): > 100 µM (inactive)
- GI50 (T47D): > 100 µM (inactive)
- GI50 (U-251): > 100 µM (inactive)
- GI50 (UACC-257): > 100 µM (inactive)
- GI50 (UACC-62): > 100 µM (inactive)
- GI50 (UO-31): > 100 µM (inactive)

SMILES: COc1ccc(OC)c2c3c([nH]c12)C(=O)Nc1nc(N)nc(N)c1C3
- GI50 (786-0): > 100 µM (inactive)
- GI50 (BT-549): > 100 µM (inactive)
- GI50 (DU-145): > 100 µM (inactive)
- GI50 (EKVX): > 100 µM (inactive)
- GI50 (HCC 2998): > 100 µM (inactive)
- GI50 (HOP-92): > 100 µM (inactive)
- GI50 (HT-29): 1.12 µM (inactive)
- GI50 (K562): 0.634 µM (active)
- GI50 (KM12): 4.57 µM (inactive)
- GI50 (LOX IMVI): > 100 µM (inactive)
- GI50 (M14): > 100 µM (inactive)
- GI50 (MDA-MB-435): 0.273 µM (active)
- GI50 (Malme-3M): 30.8 µM (inactive)
- GI50 (NCI-H226): > 100 µM (inactive)
- GI50 (OVCAR-3): 3.14 µM (inactive)
- GI50 (OVCAR-4): > 100 µM (inactive)
- GI50 (OVCAR-5): > 100 µM (inactive)
- GI50 (OVCAR-8): 4.89 µM (inactive)
- GI50 (RXF 393): > 100 µM (inactive)
- GI50 (SK-MEL-28): > 100 µM (inactive)
- GI50 (SK-MEL-2): > 100 µM (inactive)
- GI50 (SK-OV-3): > 100 µM (inactive)
- GI50 (SW-620): 2.07 µM (inactive)
- GI50 (T47D): > 100 µM (inactive)
- GI50 (TK-10): > 100 µM (inactive)
- GI50 (UACC-257): > 100 µM (inactive)
